The values below are quoted from earlier work in patent US20070162983A1, “Diagnostic and therapeutic use of the human sgpl1 gene and protein for neurodegenerative diseases” (Evotec NeuroSciences GmbH, priority 2003, published 2007).

By IC50 is commonly meant the concentration at which inhibition is half-maximal. Broadly, the Ki is a dissociation constant, usually derived from enzyme kinetics or from competition with a known ligand.

For series [1] the following is noted: dogs, estimated (Tosaka et al., Stroke 2001).
In series [2] the test system is SGPL1. The settings on record: known specific inhibitors of SGPL1 activity; for IC50: read-out: IC50, inhibition of SGPL1 activity.

Turning to `CCCCCCCCCCCCC/C=C/[C@@H](O)[C@@H](N)COP(=O)(O)O` [S1P, sphingosine-1-phosphate], the “half-life in cerebrospinal fluid (CSF)” value in series [1] was “approximately 10 minutes”.

Consider `CCCC[C@H](C)[C@H](O)[C@H](O)C[C@H](C)C[C@@H](O)CCCC[C@@H](O)C[C@H](O)[C@H](C)N`, for which the IC50 in series [2] is 20 µM.

As to `CCCCCCCCCCCCCCC[C@H](O)[C@@H](N)COP(=O)(O)O` (single isomer, unassigned) [2D,3L-isomer of sphinganine phosphate], the Ki in series [2] (read-out: Ki, inhibition of SGPL1 activity) was 9.7 µM.

2-vinyl analog of sphinganine phosphate: the IC50 in series [2] is 2.4 µM.
